This assay relates to Plasmodium falciparum. The experiment in a line: GSK_TCMDC: Inhibition of Plasmodium falciparum 3D7 in whole erythrocytes, using parasite LDH activity as an index of growth. Type of assay: functional, organism-based.

Experimental findings from ChEMBL document CHEMBL1157539, “Thousands of chemical starting points for antimalarial lead identification” (Nature, 2010) are described below.

Where “and” joins values, the source holds several entries; their conditions need not be identical. Identical values can stand only once.

The compound `O=C(/C=C/c1ccc([N+](=O)[O-])cc1)NC1CCC(CN2CCC(c3c[nH]c4ccccc34)CC2)CC1` (stereo not drawn) registered an XC50 of 835 nM. This compound gave an XC50 (Plasmodium falciparum, 3D7) of 794 nM. The compound `O[C@@H](c1cc(C(F)(F)F)nc2c(C(F)(F)F)cccc12)[C@H]1CCCCN1` registered an XC50 of 69.2 nM. This compound gave an XC50 (Plasmodium falciparum, 3D7) of 73.7 nM. Consider `N#Cc1ccc2c(c1)CN(CC[C@H]1CC[C@H](NC(=O)/C=C/c3c[nH]c4ccccc34)CC1)CC2`, for which the XC50 came to 897 nM. The same compound returned an XC50 (Plasmodium falciparum, 3D7) of 986 nM.

Consider `Cc1[nH]c(C)c(-c2ccc(Oc3ccc(OC(F)(F)F)cc3)cc2)c(=O)c1Br`, for which the XC50 is 563 nM and 112 nM.

Regarding `COc1ccc2ncc(F)c(C(O)CN3CCC(NCc4ccc5c(n4)NC(=O)CO5)CC3)c2c1` (stereo not drawn), the XC50 is 1110 nM and 367 nM.

As for `Cc1nc2c(c(O)c1Cl)-c1ccc(Oc3cccc(C(F)(F)F)c3)cc1C2=O`, the XC50 was determined as 36.9 nM. The same measure, in the same setting: the result for `C/C=C1\CN2CC[C@H]1C[C@H]2[C@H](O)c1ccnc2ccc(OC)cc12` reads 219 nM. Regarding `CCC(CC(NCCCCNC(=O)c1ccc(NC(=O)c2ccc(Cl)cc2)cc1)c1ccccc1)c1ccccc1OC` (stereo not drawn), the XC50 came out at 666 nM. Also, the XC50 (Plasmodium falciparum, 3D7) came out at 792 nM.

`Cn1nc(-c2ccc(S(=O)(=O)NC3CCC(CN4CCC(c5c[nH]c6ccccc56)CC4)CC3)s2)cc1C(F)(F)F` (stereo not drawn) displayed an XC50 of 835 nM. Also, under “Plasmodium falciparum, 3D7”, the XC50 was 820 nM.

`O=C1Nc2cccc3c2C1(CCCCN1CCC(c2cc4ccncc4[nH]2)CC1)CCC3` (stereo not drawn) had an XC50 of 911 nM. The compound also yielded an XC50 (Plasmodium falciparum, 3D7) of 787 nM.

The compound `O=C(/C=C/c1cccc(F)c1)NC1CCC(CN2CCC(c3c[nH]c4ccccc34)CC2)CC1` (stereo not drawn) gave an XC50 of 866 nM. Further, the XC50 (Plasmodium falciparum, 3D7) turned out to be 713 nM.

In turn, `O=C(/C=C/c1cccc(Cl)c1)NC1CCC(CN2CCC(c3c[nH]c4ccccc34)CC2)CC1` (stereo not drawn) yielded an XC50 of 721 nM. For the same compound, under “Plasmodium falciparum, 3D7”, the XC50 worked out at 752 nM. The corresponding values for `O=C(/C=C/c1ccc(Cl)cc1)NC1CCC(CN2CCC(c3c[nH]c4ccccc34)CC2)CC1` (stereo not drawn) are 800 nM and 727 nM. The like results for `CC1=C(C(=O)NC2CCC(CN3CCC(c4c[nH]c5ccccc45)CC3)CC2)Cc2ccccc21` (stereo not drawn) were, in that order, 833 nM and 996 nM. The corresponding values for `COc1cc(/C=C/C(=O)NC2CCC(CN3CCC(c4c[nH]c5ccccc45)CC3)CC2)ccc1O` (stereo not drawn) are 791 nM and 809 nM. In turn, `COc1cccc(/C=C/C(=O)NC2CCC(CN3CCC(c4c[nH]c5ccccc45)CC3)CC2)c1` (stereo not drawn) registered an XC50 of 834 nM. Besides, the XC50 (Plasmodium falciparum, 3D7) was determined as 765 nM. `Cc1ccc(CC(C)NCC(O)c2cccc(C(F)(F)F)c2)cc1` (stereo not drawn) registered an XC50 of 709 nM. Turning to `C[C@H](CNc1ccnc(Nc2ccc3[nH]c(=O)[nH]c3c2)n1)c1ccccc1`, the XC50 was 700 nM. Compound `CC(=O)Nc1ccc2[nH]cc(C3CCN(CC4CCC(NC(=O)/C=C/c5ccc(Cl)c(Cl)c5)CC4)CC3)c2c1` (stereo not drawn) registered an XC50 of 441 nM. The same compound gave an XC50 (Plasmodium falciparum, 3D7) of 719 nM. The corresponding values for `COc1ccc(C=CC(=O)NC2CCC(CN3CCC(c4c[nH]c5ccccc45)CC3)CC2)cc1` (stereo not drawn) are 807 nM and 782 nM. `O=C(CCc1ccc(Cl)cc1Cl)NC1CCC(CN2CCC(c3c[nH]c4ccccc34)CC2)CC1` (stereo not drawn): the XC50 is 216 nM and 903 nM.

In the case of `O=C(/C=C/c1ccc(Cl)c(Cl)c1)NCCCCCN1CCC(c2c[nH]c3ccccc23)C(O)C1` (stereo not drawn), the XC50 is 819 nM. Further, under “Plasmodium falciparum, 3D7”, the XC50 worked out at 795 nM. The corresponding values for `FC(F)(F)c1ccc(NC(=S)NC2CCC(CN3CCC(c4c[nH]c5ccccc45)CC3)CC2)cc1` (stereo not drawn) are 726 nM and 392 nM. Compound `O=C(C=Cc1cccc(Cl)c1Cl)NC1CCC(CN2CCC(c3c[nH]c4ccccc34)CC2)CC1` (stereo not drawn) had an XC50 of 1140 nM. The compound further gave an XC50 (Plasmodium falciparum, 3D7) of 680 nM. Take `O=C(/C=C/c1ccc(C(F)(F)F)cc1)NC1CCC(CN2CCC(c3c[nH]c4ccccc34)CC2)CC1` (stereo not drawn): the XC50 is 964 nM and 369 nM.

`N#Cc1c(Cl)cccc1Oc1ccc(S(=O)(=O)NC2CCC(CN3CCC(c4c[nH]c5ccccc45)CC3)CC2)cc1` (stereo not drawn) registered an XC50 of 714 nM. The XC50 (Plasmodium falciparum, 3D7) came to 1070 nM. The like results for `O=C(Nc1ccccc1Cl)NC1CCC(CN2CCC(c3c[nH]c4ccccc34)CC2)CC1` (stereo not drawn) were, in that order, 753 nM and 803 nM. The corresponding values for `O=C(Nc1ccccc1C(F)(F)F)NC1CCC(CN2CCC(c3c[nH]c4ccccc34)CC2)CC1` (stereo not drawn) are 946 nM and 784 nM. For `O=C(/C=C/c1ccc(Cl)c(Cl)c1)NC1CCC(CN2CCC(c3c[nH]c4ccc(O)cc34)CC2)CC1` (stereo not drawn), the XC50 was 417 nM and 140 nM.

`Cc1ccc2[nH]cc(C3CCN(CC4CCC(NC(=O)/C=C/c5ccc(Cl)c(Cl)c5)CC4)CC3)c2c1` (stereo not drawn) had an XC50 of 552 nM. Besides, the XC50 (Plasmodium falciparum, 3D7) worked out at 840 nM. Regarding `O=C(/C=C/c1c(Cl)cccc1Cl)NC1CCC(CN2CCC(c3c[nH]c4ccccc34)CC2)CC1` (stereo not drawn), the XC50 is 814 nM and 373 nM. In turn, `NC(=O)c1ccc2[nH]cc(C3CCN(CC4CCC(NC(=O)/C=C/c5ccc(Cl)c(Cl)c5)CC4)CC3)c2c1` (stereo not drawn) returned an XC50 of 867 nM. Under “Plasmodium falciparum, 3D7”, the XC50 came to 761 nM. The like results for `S=C(NCCc1ccc(Cl)cc1)NC1CCC(CN2CCC(c3c[nH]c4ccccc34)CC2)CC1` (stereo not drawn) were, in that order, 703 nM and 703 nM.

`O=C(C=Cc1ccccc1C(F)(F)F)NC1CCC(CN2CCC(c3c[nH]c4ccccc34)CC2)CC1` (stereo not drawn) had an XC50 of 902 nM. Also, under “Plasmodium falciparum, 3D7”, the XC50 is 677 nM. Consider `O=C(C=Cc1ccc(F)c(Br)c1)NC1CCC(CN2CCC(c3c[nH]c4ccccc34)CC2)CC1` (stereo not drawn), for which the XC50 was found to be 842 nM. The compound also yielded an XC50 (Plasmodium falciparum, 3D7) of 789 nM. Compound `O=C(NC1CCC(CN2CCC(c3c[nH]c4ccccc34)CC2)CC1)c1cc2ccccc2s1` (stereo not drawn) yielded an XC50 of 725 nM. The compound further yielded an XC50 (Plasmodium falciparum, 3D7) of 729 nM. In turn, `Cc1c(C)c2c(c(C)c1O)CC[C@](C)(C(=O)NC1CCC(CN3CCC(c4c[nH]c5ccccc45)CC3)CC1)O2` (stereo partly drawn) displayed an XC50 of 1120 nM. Under “Plasmodium falciparum, 3D7”, the XC50 is 881 nM.

Turning to `O=C(Nc1cccc(-c2cccc(-c3nc4ccccc4[nH]3)c2)c1)NC1CC1c1ccccc1` (stereo not drawn), the XC50 came out at 898 nM. The same compound displayed an XC50 (Plasmodium falciparum, 3D7) of 1070 nM. The corresponding values for `CC(C)(C)c1cc(/C=C/C(=O)NC2CCC(CN3CCC(c4c[nH]c5ccccc45)CC3)CC2)cc(C(C)(C)C)c1O` (stereo not drawn) are 719 nM and 705 nM. For the compound `Cc1cc(=O)c(-c2ccc(Oc3cccc(C(F)(F)F)c3)cc2)c(C)[nH]1`, the XC50 is 629 nM and 209 nM.

On to `O=C(/C=C/c1ccc(Cl)c(Cl)c1)NC1CCC(CN2CCC(c3c[nH]c4cc(C(F)(F)F)ccc34)CC2)CC1` (stereo not drawn), for which the XC50 is 278 nM and 897 nM.

Take `S=C(Nc1ccc2c(c1)OCCO2)NC1CCC(CN2CCC(c3c[nH]c4ccccc34)CC2)CC1` (stereo not drawn): the XC50 turned out to be 1000 nM. Also, the XC50 (Plasmodium falciparum, 3D7) came to 653 nM. The like results for `Cc1ccc(/C=C/C(=O)NC2CCC(CN3CCC(c4c[nH]c5ccccc45)CC3)CC2)cc1` (stereo not drawn) were, in that order, 798 nM and 920 nM. For the compound `CSc1nccc(-c2ccc(S(=O)(=O)NC3CCC(CN4CCC(c5c[nH]c6ccccc56)CC4)CC3)s2)n1` (stereo not drawn), the XC50 is 811 nM and 254 nM. As for `O=C(/C=C/c1ccc(Cl)c(Cl)c1)NCCCCCN1C2CCC1CC(c1c[nH]c3ccc(O)cc13)C2` (stereo not drawn), the XC50 came to 879 nM. Besides, where the note is “Plasmodium falciparum, 3D7”, the XC50 was 998 nM. As to `O=C(Nc1ccccc1OC(F)(F)F)NC1CCC(CN2CCC(c3c[nH]c4ccccc34)CC2)CC1` (stereo not drawn), the XC50 was 369 nM and 800 nM. `O=C(C=Cc1ccccc1Br)NC1CCC(CN2CCC(c3c[nH]c4ccccc34)CC2)CC1` (stereo not drawn) returned an XC50 of 687 nM. The same compound returned an XC50 (Plasmodium falciparum, 3D7) of 737 nM. The like results for `O=C(C=C1c2ccccc2-c2ccccc21)NC1CCC(CN2CCC(c3c[nH]c4ccccc34)CC2)CC1` (stereo not drawn) were, in that order, 697 nM and 795 nM.

As for `COC(=O)c1sccc1NC(=S)NC1CCC(CN2CCC(c3c[nH]c4ccccc34)CC2)CC1` (stereo not drawn), the XC50 amounted to 574 nM. This compound came in with an XC50 (Plasmodium falciparum, 3D7) of 915 nM. The like results for `O=C(/C=C/c1ccccc1O)NC1CCC(CN2CCC(c3c[nH]c4ccccc34)CC2)CC1` (stereo not drawn) were, in that order, 461 nM and 756 nM. The like results for `COc1ccc(C=CC(=O)NC2CCC(CN3CCC(c4c[nH]c5ccccc45)CC3)CC2)cc1OC` (stereo not drawn) were, in that order, 841 nM and 801 nM. In turn, `O=C(Nc1cc(C(F)(F)F)cc(C(F)(F)F)c1)NC1CCC(CN2CCC(c3c[nH]c4ccccc34)CC2)CC1` (stereo not drawn) yielded an XC50 of 461 nM. Moreover, the XC50 (Plasmodium falciparum, 3D7) turned out to be 810 nM. The corresponding values for `COc1ccc(-c2ccccc2)cc1NC(=S)NC1CCC(CN2CCC(c3c[nH]c4ccccc34)CC2)CC1` (stereo not drawn) are 740 nM and 652 nM. The like results for `O=C(C=Cc1ccc(-c2ccccc2)cc1)NC1CCC(CN2CCC(c3c[nH]c4ccccc34)CC2)CC1` (stereo not drawn) were, in that order, 807 nM and 738 nM. Compound `COC(=O)c1ccc(CC(C)NCC(O)c2cccc(C(F)(F)F)c2)cc1` (stereo not drawn) [listing 1 of 2 here] yielded an XC50 of 765 nM.

On to `Oc1cccc(-c2nc3cc(C4=NC5CCCCC5N4)ccc3[nH]2)c1` (stereo not drawn), for which the XC50 came out at 530 nM. Compound `O=C(NCCCCN1CCCC2c3ccc(O)cc3CCC21)c1ccc(-c2ccccc2)cc1` (stereo not drawn) gave an XC50 of 945 nM. For the same compound, under “Plasmodium falciparum, 3D7”, the XC50 is 732 nM. As for `COc1ccc2nccc([C@@H](O)CN3CCC(NCc4nc5c(cc4Cl)SCC(=O)N5)C(F)C3)c2c1` (stereo partly drawn), the XC50 worked out at 759 nM. The compound further gave an XC50 (Plasmodium falciparum, 3D7) of 505 nM.

The compound `COC(=O)/C=C/c1ccc(CC(C)NCC(O)c2cccc(C(F)(F)F)c2)cc1` (stereo not drawn) displayed an XC50 of 775 nM. In the case of `Cc1ccc(/C=C/C(=O)NC2CCC(CN3CCC(c4c[nH]c5ccccc45)CC3)CC2)cc1C` (stereo not drawn), the XC50 turned out to be 821 nM. Moreover, the XC50 (Plasmodium falciparum, 3D7) was found to be 832 nM. The corresponding values for `O=C(/C=C/c1cccc2ccccc12)NC1CCC(CN2CCC(c3c[nH]c4ccccc34)CC2)CC1` (stereo not drawn) are 745 nM and 666 nM.

For `COc1ccc2ncc(F)c(CCN3CC(O)C(CNCc4nc5c(cc4Cl)OCC(=O)N5)C3)c2n1` (stereo not drawn), the XC50 was 1280 nM and 954 nM. For the setting “Plasmodium falciparum, 3D7”, this compound yielded an XC50 of 830 nM. On to `COc1ccc(C[C@@H](C)NC[C@H](O)c2cccc(Cl)c2)cc1F`, for which the XC50 is 992 nM.

For `COC(=O)c1ccc(CC(C)NCC(O)c2cccc(C(F)(F)F)c2)cc1` (stereo not drawn) [listing 2 of 2 here], the XC50 came out at 974 nM. Under “Plasmodium falciparum, 3D7”, the XC50 turned out to be 1150 nM. In the case of `Cc1ccc(CC(C)NC[C@H](O)c2cccc(Cl)c2)cc1` (stereo partly drawn), the XC50 came out at 927 nM. In the case of `NC1=NC(c2ccccc2)(c2cccc(O)c2)C(=O)N1CCCc1ccccc1` (stereo not drawn), the XC50 was determined as 836 nM. The XC50 (Plasmodium falciparum, 3D7) stood at 1230 nM.
